Key:
recombinant AtPCO4 [1] = target: T1, recombinant AtPCO4 (Arabidopsis thaliana, UniProt Q9SJI9); assay: AtPCO4 activity toward RAP2.12_2—17 after 6 min aerobic preincubation of enzyme with peptidomimetic or control peptide (time course, LC-MS); format: biochemical; settings: 200 μM peptide, 6 min aerobic preincubation with 0.1 μM AtPCO4; 20 μM RAP2.12_2—17; 25 °C
T1 construct: His tag followed by thrombin site (N); made in house; host or cells: E. coli BL21(DE3)
Protocol: (§1) Recombinant AtPCO4 was expressed using BL21(DE3) Escherichia coli cells containing the plasmid pET-28a(+)-His-THROMBIN-AtPCO4, and purified using Ni^2+-affinity and size exclusion chromatography as described in ([59]). WT AtPCO4 along with AtPCO4 Cys190Ala and AtPCO4 ADO loop variants were purified using this method. WT AtPCO4 reactivity toward the peptidomimetics was assessed by incubating (0.1 μM) recombinant enzyme with (200 μM) peptidomimetic in assay buffer (assay buffer: 50 mM Bis-tris propane, 40 mM NaCl, pH 8) supplemented with 20 μM FeSO4, 1 mM ascorbate, 5 mM TCEP, at 25 °C for 20 min prior to quenching in 5% (v/v) formic acid.
(§2) Reaction samples taken at 0 s, 30 s, 60 s, 90 s, 2 min, 5 min, 10 min, 15 min, and 20 min intervals were quenched in 5% (v/v) formic acid.
(§3) Spectra were assessed manually in MassHunter Qualitative Analysis B.07.00 software (Agilent) to ensure the correct ion was chosen for peptide oxidation quantification. RapidFire Integrator.exe was used to integrate areas of product and substrate ions (ii) an Acquity Ultra-high performance liquid chromatography system (Waters) coupled to a Xevo G2-XS Q-ToF mass spectrometer (Waters) operated in positive electrospray mode. Instrument parameters, data acquisition and data processing were controlled by MassLynx V4.1 software (Waters). Source parameters were adjusted to maximize sensitivity and minimize fragmentation. […] TOF mass scan range 50.00—2500.00 Da. Spectra were assessed manually in MassLynx V4.1 software (Waters) to ensure the correct ion was chosen for peptide oxidation quantification. MassLynx V4.1 software (Waters) was used to integrate areas of product and substrate ions.
(§4) Integration values obtained by MS were subsequently used to quantify reaction turnover (μmol of substrate oxidized per mg of enzyme), and graphs were generated using Prism 10 (GraphPad).

recombinant AtPCO4 [2] = target: T1, recombinant AtPCO4; assay: AtPCO4 activity toward RAP2.12_2—17 with peptidomimetic, without peptidomimetic-AtPCO4 preincubation; format: biochemical; settings: 200 μM peptidomimetic, 0.1 μM AtPCO4, 20 μM RAP2.12_2—17, 25 °C
Protocol: To test the significance of the peptidomimetic-AtPCO4 preincubation step, the method above was modified so that either 0 or 400 μM peptidomimetic was instead in mixture (ii) (Fig. 9B). Mixtures were again incubated separately at 25 °C for 6 min before being combined in equal volumes, initiating the reaction. Samples were taken and quenched in 5% (v/v) formic acid.
as §3, §4

AtPCO4 Cys190Ala variant = assay: Cys190Ala AtPCO4 variant activity toward RAP2.12_2—17 after preincubation with peptidomimetic; format: biochemical, Arabidopsis thaliana
Protocol: as §1, §2
Figure S15 Investigating the potential formation of a Cys190-Tyr192 activity-enhancing crosslink. […] Standard conditions: 5 mM TCEP, 20 μM FeSO4, 1 mM ascorbate, 25 °C. […] Error bars display S.D (n=3).

recombinant AtPCO4 [3] = target: T1, recombinant AtPCO4; assay: Substrate only assay: anaerobic preincubation of AtPCO4 with RAP2.12_2—17; format: biochemical
Protocol: The assay plate was immediately removed to aerobic conditions, initiating the reaction. Samples were taken at 0 s, 2 min, 5 min, 10 min, 15 min, and 20 min and quenched in 5% (v/v) formic acid.
as §3, §4

recombinant AtPCO4 [4] = target: T1, recombinant AtPCO4; assay: AtPCO4 activity toward RAP2.12_2—15 or RAP2.12_2—17 in the presence and absence of peptidomimetic 10 (Fig. S16); format: biochemical; settings: 14-mer RAP2.12 substrate, slope of turnover against time (minutes)
Protocol: as §2
Standard conditions: 5 mM TCEP, 20 μM FeSO4, 1 mM ascorbate, 25 °C. Turnover calculated as μmol RAP2.122—15/17 oxidised per […] of AtPCO4 (data shown is not normalised). Error bars display S.D (n=3).

Row | Substance | x (slope between 0-5 min), Peptidomimetic rxn / CP rxn (recombinant AtPCO4 [1]) | x (slope between 0-5 min), Peptidomimetic rxn, no preincubation (recombinant AtPCO4 [2]) | other results
1 | XGGAIISDFIPPPR [Peptidomimetic 13, 14-mer X… with N-terminal X = Pra] | 0.34 |  | 
2 | XGGAIISDFIPPPR [Peptidomimetic 1, 14-mer X… mimic of RAP2.12 with N-terminal X = D-Cys] | 0.28 |  | 
3 | XGGAIISDFIPPPR [Peptidomimetic 7, 14-mer X… with N-terminal X = 3MePro, Cys-analogue devoid of an amino group] | 0.78 | 0.03853 | increase in the initial rate of RAP2.12_2—17 oxidation between 0—5 min, Cys190Ala AtPCO4 variant (AtPCO4 Cys190Ala variant; 200 μM peptidomimetic, 6 min preincubation with 0.1 μM C190A AtPCO4, 20 μM RAP2.12_2—17, relative to control without peptidomimetic (=1), 25 °C, n = 3): 5.21 fold; Initial rate: x (slope between 0-5 min), Peptidomimetic rxn (AtPCO4 Cys190Ala variant; C190A AtPCO4, slope of turnover time course between 0-5 min): 0.4559
4 | XGGAIISDFIPPPR [Peptidomimetic 6, 14-mer X… with N-terminal X = TM3C (thiomorpholine, cyclized thioether)] | 0.18 |  | 
5 | XGGAIISDFIPPPR [Peptidomimetic 3, 14-mer X… with N-terminal X = penicillamine] |  | 0.01063 | 
6 | XGGAIISDFIPPPR [Peptidomimetic 11, 14-mer X… with N-terminal X = hSer] | 0.29 |  | 
7 | XGGAIISDFIPPPR [Peptidomimetic 4, 14-mer X… with N-terminal X = S-methyl cysteine (linear thioether)] | 0.31 |  | 
8 | XGGAIISDFIPPPR [Peptidomimetic 12, 14-mer X… with N-terminal X = AlG] |  | 0.03158 | 
9 | XGGAIISDFIPPPR [Peptidomimetic 8, 14-mer X… with N-terminal X = Nα-Me-Cys] |  | 0.1162 | 
10 | XGGAIISDFIPPPR [Peptidomimetic 2, 14-mer X… with N-terminal X = homocysteine] |  | 0.05853 | 
11 | RAP2.12_2—17: 16-mer N-terminal L-Cys substrate peptide of AtPCO4 representing AtRAP2.12, purchased from GL Biochem (CGGAIISDFIPPPRSR; UniProt Q9SSA8 2-17, looked up, fragment) |  |  | x (slope between 5-15 min), Preincubation rxn (recombinant AtPCO4 [3]; 20 μM RAP2.12_2—17, 6 min anaerobic preincubation with 0.1 μM WT AtPCO4): 0.099; x (slope between 5-15 min), Preincubation rxn (recombinant AtPCO4 [3]; 50 μM RAP2.12_2—17, 6 min anaerobic preincubation with 0.1 μM WT AtPCO4): 0.275; x (slope between 5-15 min), No Preincubation (recombinant AtPCO4 [3]; 50 μM RAP2.12_2—17, no preincubation with AtPCO4 (anaerobic preparation)): 0.175; x (slope between 5-15 min), Preincubation rxn (recombinant AtPCO4 [3]; 100 μM RAP2.12_2—17, 6 min anaerobic preincubation with 0.1 μM WT AtPCO4): 0.34; x (slope between 5-15 min), No Preincubation (recombinant AtPCO4 [3]; 100 μM RAP2.12_2—17, no preincubation with AtPCO4 (anaerobic preparation)): 0.209; x (slope between 5-15 min), Preincubation rxn (recombinant AtPCO4 [3]; 200 μM RAP2.12_2—17, 6 min anaerobic preincubation with 0.1 μM WT AtPCO4): 0.303; x (slope between 5-15 min), No Preincubation (recombinant AtPCO4 [3]; 200 μM RAP2.12_2—17, no preincubation with AtPCO4 (anaerobic preparation)): 0.15
12 | XGGAIISDFIPPPR [Peptidomimetic 10, 14-mer X… with N-terminal X = Ser] |  | 0.07282 | x (slope between 0-5 min), Peptidomimetic rxn (recombinant AtPCO4 [4]): 0.6491
